From US8137907B2, “Orthotopic and genetically tractable non-human animal model for liver cancer and the uses thereof” (Cold Spring Harbor Laboratory, priority 2005, dated 2012)

Test system: subcutaneous liver tumor of genetic constellation p53−/−+Akt-over expression
Assay: Subcutaneous liver cancer model, evaluation of tumor therapy (FIG. 7)
Format: in vivo, mouse
Source text: FIG. 7: An example of subcutaneous liver cancer model of this invention on the genetic constellation p53−/−+Akt-over expression and its uses in evaluating tumor therapy. Akt is an […] that is activated in many cancers and may promote drug resistance in vitro (Mayo et al., “PTEN protects p53 from Mdm2 and sensitizes cancer cells to chemotherapy,” J. Biol. Chem. 277: 5484-5489 (2002)).
Most preferably, the therapies are used and evaluated in combination. […] The tumor embodied in FIG. 2 can also be treated with Rapamycin, a targeted therapy that inhibits the mammalian target of rapamycin (mTOR). […] In combination, however, as depicted in FIG. 7, the two therapies control tumor growth.

Structure (SMILES): Nc1ccn([C@@H]2O[C@H](CO)[C@@H](O)C2(F)F)c(=O)n1 [Gemcitabine]
- tumor growth: virtually no effect on tumor growth
